The values below come from PubChem BioAssay AID192 (DTP/NCI, 2004).

Structures are written as SMILES. Several values for one entry are separate records, joined by “and”; a condition that tells them apart may be missing. Equal values may be shown once. Toxic doses and inconclusive results are not listed.

In this assay the test system is BDF1 mice, B16 melanoma ip, median survival T/C. Description: NCI In Vivo Anticancer Drug Screen. Data for tumor model B16 Melanoma (intraperitoneal) in B6D2F1 (BDF1) mice. The note with it: endpoint: median survival time, higher = longer survival. Put shortly: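 The ratio T/C compares compound-treated mice with vehicle-treated controls, using survival or tumor size as the endpoint in a transplantable tumor model.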

Setting [1] is: dose: 12.5 mg/kg/injection, schedule: Q01DX009 (ip), vehicle: Klucel (hydroxypropylcellulose) (HPC).
Setting [2] is: dose: 25.0 mg/kg/injection, schedule: Q01DX009 (ip), vehicle: Klucel (hydroxypropylcellulose) (HPC).
[3] abbreviates: dose: 50.0 mg/kg/injection, schedule: Q01DX009 (ip), vehicle: Klucel (hydroxypropylcellulose) (HPC).

On to `CC(=O)c1c(O)c(C)c(O)c2c1OC1=CC(=O)C(C(C)=O)C(=O)C12C` (configuration not stated), for which the T/C by setting is: (dose: 5.0 mg/kg/injection, schedule: Q01DX009 (ip), vehicle: gum acacia) 107 % of control; (dose: 6.25 mg/kg/injection, schedule: Q01DX009 (ip), vehicle: gum acacia) 92 % of control; (dose: 12.5 mg/kg/injection, schedule: Q01DX009 (ip), vehicle: gum acacia) 108 % of control; (dose: 20.0 mg/kg/injection, schedule: Q01DX009 (ip), vehicle: gum acacia) 100 % of control; (dose: 40.0 mg/kg/injection, schedule: Q01DX009 (ip), vehicle: gum acacia) 102 % of control; (dose: 50.0 mg/kg/injection, schedule: Q01DX009 (ip), vehicle: gum acacia) 108 % of control. The T/C was 105 % of control (dose: 80.0 mg/kg/injection, schedule: Q01DX009 (ip), vehicle: gum acacia) and 97 % of control (dose: 100.0 mg/kg/injection, schedule: Q01DX009 (ip), vehicle: gum acacia).

With `O=[N+]([O-])CC1(O)CCCCC1`, the T/C runs as follows: under setting [1], 102 % of control; under setting [2], 94 % of control.

Consider `COB1OB(OC)OB(OC)O1`, for which the T/C was 103 % of control (dose: 50.0 mg/kg/injection, schedule: Q01DX009 (ip), vehicle: saline with Tween-80); 104 % of control (dose: 100.0 mg/kg/injection, schedule: Q01DX009 (ip), vehicle: saline with Tween-80); 105 % of control (dose: 100.0 mg/kg/injection, schedule: Q04DX003 (ip), vehicle: saline with Tween-80); 102 % of control (dose: 200.0 mg/kg/injection, schedule: Q01DX009 (ip), vehicle: saline with Tween-80); 112 % of control (dose: 200.0 mg/kg/injection, schedule: Q04DX003 (ip), vehicle: saline with Tween-80); 98 % of control (dose: 400.0 mg/kg/injection, schedule: Q01DX009 (ip), vehicle: saline with Tween-80). In addition, the T/C (dose: 400.0 mg/kg/injection, schedule: Q04DX003 (ip), vehicle: saline with Tween-80) is 110 % of control.

Regarding `CC(=O)OC1C2CCC3C(C)(O)C4CC(O)C(C)(C)C4(O)C(O)CC13CC2(C)O` (configuration not stated), the T/C is 101 % of control (dose: 2.0 micrograms/kg/injection, schedule: Q01DX009 (ip), vehicle: Klucel (hydroxypropylcellulose) (HPC)); 92 % of control (dose: 4.0 micrograms/kg/injection, schedule: Q01DX009 (ip), vehicle: Klucel (hydroxypropylcellulose) (HPC)); 99 % of control (dose: 8.0 micrograms/kg/injection, schedule: Q01DX009 (ip), vehicle: Klucel (hydroxypropylcellulose) (HPC)); 98 % of control (dose: 16.0 micrograms/kg/injection, schedule: Q01DX009 (ip), vehicle: Klucel (hydroxypropylcellulose) (HPC)).

On to `O=NN(CCF)C(=O)NC1C(O)CCCC1O` (configuration not stated), for which the T/C by setting is: (dose: 1.88 mg/kg/injection, schedule: Q01DX001 (ip), vehicle: saline) 121 % of control; (dose: 7.5 mg/kg/injection, schedule: Q01DX001 (ip), vehicle: saline) 199 % of control; (dose: 15.0 mg/kg/injection, schedule: Q01DX001 (ip), vehicle: saline) 212 % of control; (dose: 30.0 mg/kg/injection, schedule: Q01DX001 (ip), vehicle: saline) 263 % of control; (dose: 60.0 mg/kg/injection, schedule: Q01DX001 (ip), vehicle: saline) 226 % of control.

Regarding `N#CC(c1ccccc1)N1CCCCC1` (configuration not stated), the T/C under setting [3] is 93 % of control and the T/C (dose: 100.0 mg/kg/injection, schedule: Q01DX009 (ip), vehicle: Klucel (hydroxypropylcellulose) (HPC)) was 90 % of control.

With `CNC(=S)N/N=C/CCC/C=N/NC(=S)NC`, the T/C (dose: 15.9 mg/kg/injection, schedule: Q01DX009 (ip), vehicle: saline with Tween-80) was 88 % of control and the T/C (dose: 31.8 mg/kg/injection, schedule: Q01DX009 (ip), vehicle: saline with Tween-80) was 92 % of control.

As to `CCC(C)C(C(=O)OCCN(CC)CC)c1ccccc1` (configuration not stated), the T/C is 90 % of control under setting [1]; 96 % of control under setting [2]; 90 % of control and 93 % of control under setting [3].

Consider `Nc1nc2c(ncn2C2OC(CO)C(O)C2O)c(=O)[nH]1.Nc1nc2c(ncn2C2OC(CO)C(O)C2O)c(=O)[nH]1.[NH2-].[NH2-].[Pt+2]` (configuration not stated), for which the T/C is, setting by setting: (dose: 6.25 mg/kg/injection, schedule: Q01DX009 (ip), vehicle: water) 100 % of control and 108 % of control; (dose: 12.5 mg/kg/injection, schedule: Q01DX009 (ip), vehicle: water) 98 % of control and 114 % of control; (dose: 25.0 mg/kg/injection, schedule: Q01DX009 (ip), vehicle: water) 117 % of control; (dose: 50.0 mg/kg/injection, schedule: Q01DX009 (ip), vehicle: water) 109 % of control; (dose: 100.0 mg/kg/injection, schedule: Q01DX009 (ip), vehicle: water) 160 % of control; (dose: 200.0 mg/kg/injection, schedule: Q01DX009 (ip), vehicle: water) 151 % of control and 170 % of control.

Regarding `O=P(N1CC1)(N1CC1)N1CC1`, the T/C reads like this: (dose: 0.75 mg/kg/injection, schedule: Q01DX009 (ip), vehicle: saline with Tween-80) 120 % of control; (dose: 1.0 mg/kg/injection, schedule: Q01DX009 (ip), vehicle: saline) 110 % of control; (dose: 2.0 mg/kg/injection, schedule: Q01DX009 (ip), vehicle: saline) 120 % of control.

Turning to `CN(C)CC/C=C1\c2ccccc2Sc2ccc(C(F)(F)F)cc21`, the T/C runs as follows: (dose: 0.19 mg/kg/injection, schedule: Q01DX009 (ip), vehicle: saline) 105 % of control; (dose: 0.39 mg/kg/injection, schedule: Q01DX009 (ip), vehicle: saline) 122 % of control; (dose: 0.78 mg/kg/injection, schedule: Q01DX009 (ip), vehicle: saline) 111 % of control; (dose: 1.56 mg/kg/injection, schedule: Q01DX009 (ip), vehicle: saline) 108 % of control; (dose: 3.12 mg/kg/injection, schedule: Q01DX009 (ip), vehicle: saline) 105 % of control; (dose: 6.12 mg/kg/injection, schedule: Q01DX009 (ip), vehicle: saline) 90 % of control.

With `O=C1NC(C2CCC3CN32)C(=O)NC1C1CCC2CN21` (configuration not stated), the T/C (dose: 0.05 mg/kg/injection, schedule: Q01DX009 (ip), vehicle: saline) is 102 % of control; the T/C (dose: 0.1 mg/kg/injection, schedule: Q01DX009 (ip), vehicle: saline) is 107 % of control; the T/C (dose: 0.2 mg/kg/injection, schedule: Q01DX009 (ip), vehicle: saline) is 108 % of control; the T/C (dose: 0.4 mg/kg/injection, schedule: Q01DX009 (ip), vehicle: saline) is 115 % of control.

For `CCN(Cc1ccc(Cl)c(Cl)c1)c1ccc2nc(N)nc(N)c2c1C`, the T/C was 110 % of control (dose: 3.12 mg/kg/injection, schedule: Q01DX009 (ip), vehicle: distilled water + Tween-80); 89 % of control (dose: 3.13 mg/kg/injection, schedule: Q01DX009 (ip), vehicle: Klucel (hydroxypropylcellulose) (HPC)); 94 % of control (dose: 6.25 mg/kg/injection, schedule: Q01DX009 (ip), vehicle: Klucel (hydroxypropylcellulose) (HPC)); 115 % of control (dose: 6.25 mg/kg/injection, schedule: Q01DX009 (ip), vehicle: distilled water + Tween-80); 122 % of control (dose: 12.5 mg/kg/injection, schedule: Q01DX009 (ip), vehicle: distilled water + Tween-80).
